Patent publication US11236073B2, “ODM-201 crystalline form, preparation method therefor, and pharmaceutical composition thereof” (Hangzhou SoliPharma Co., Ltd., priority 2017, dated 2022)
In brackets after ≈: the same amount, converted by molar mass. Entries after “also recorded” stand apart in the source; their conditions may differ.

Legend:
Format in all cases: physicochemical
[1] = Crystalline form stability experiment (XRD after storage); settings: stored 7 days at high temperature 60° C., high moisture content 97% RH, and 40° C.-75% RH
Method: X-ray powder diffraction (XRPD): performed on Bruker D8 Advance diffractometer. Samples were tested at room temperature. Testing conditions: scan range 3-40° 2θ, step size 0.02°2θ, and speed 0.2 s/step.
Crystalline form stability experiment: 15 mg of amorphous ODM-201, ODM-201 Form 1, ODM-201 Form 2, ODM-201 Form 4 and ODM-201 Form 5 in the present invention were respectively placed under the following different conditions: high temperature 60° C., high moisture content 97% RH, and 40° C.-75% RH. The samples were stored for 7 days before analyzed by XRD crystalline form measurements.

[2] = Chemical stability experiment (HPLC purity after storage); settings: for reduction of chemical purity after storage: dry condition (desiccator) at 60° C. for 7 days; for Purity (%): dry condition at 60° C., HPLC
Method: HPLC purity data were collected on Ultimate 3000 high performance liquid chromatography under the following conditions: column AY-H (4.6*100 mm, 5 μm) detection wavelength 270 nm, column temperature 40° C., flow rate 0.8 mL/min, injection volume 5 μL. The sample was dissolved in ethanol to make a solution concentration about 1 mg/mL, and a gradient method using HPLC measurements to determine the purity of the sample. […]

[3] = Isothermal sorption / dynamic vapor sorption (hygroscopicity); settings: between 0% RH and 80% RH
Method: Dynamic vapor sorption data and isothermal sorption data were collected on TA Instruments Q5000 TGA. Method: A sample of 1 to 10 mg was placed in a platinum pan; the weight change of the sample during the change in relative humidity from 0% to 80% to 0% was measured.

[4] = Apparent water solubility; settings: stirred 1 hour
Method: ODM-201 Form 1, ODM-201 Form 2, ODM-201 Form 3, ODM-201 Form 4 and ODM-201 Form 5 in the present invention were tested for the apparent water solubility, and the specific operations were as follows.
Weighed accurately and placed 15 mg of sample in a 20 mL glass vial containing 5 mL of water, and placed the vials at 25±2° C. and 37±2° C. water bath respectively, stirred in dark (about 200 rpm/min) for 1 hour, filtered with a 0.45 µm filter and took the supernatant, diluted to a certain concentration, analyzed the concentration by HPLC.

SMILES: CC(O)c1cc(C(=O)N[C@@H](C)Cn2ccc(-c3ccc(C#N)c(Cl)c3)n2)n[nH]1 (stereo partly drawn) [ODM-201 Form 5, N—((S)-1-(3-(3-chloro-4-cyanophenyl)-1H-pyrazol-1-yl)prop-2-yl)-5-(1-hydroxyethyl)-1H-pyrazole-3-carboxamide]
- The test results after 7 days (crystalline form by XRD) [1]: kept their original crystalline forms; also recorded: keeps its form unchanged; also recorded: Form 5
- reduction of chemical purity after storage [2]: still kept their original respective purity level; also recorded: essentially unchanged
- Purity (%) ([2]; 1 day): 99.6%
- Purity (%) ([2]; 7 days): 99.5%
- moisture sorption (weight change) [3]: less than 0.5%
- Solubility ([4]; 25 ± 2° C.): 17.7 µg/mL (≈ 44.4 µM)
- Solubility ([4]; 37 ± 2° C.): 29.5 µg/mL (≈ 74 µM)

SMILES: CC(O)c1cc(C(=O)N[C@@H](C)Cn2ccc(-c3ccc(C#N)c(Cl)c3)n2)n[nH]1 (stereo partly drawn) [amorphous ODM-201, N—((S)-1-(3-(3-chloro-4-cyanophenyl)-1H-pyrazol-1-yl)prop-2-yl)-5-(1-hydroxyethyl)-1H-pyrazole-3-carboxamide, reference compound]
- The test results after 7 days (crystalline form by XRD) [1]: begins to show a weak crystalline state; also recorded: Amorphous with weak crystalline peaks
- The test results after 7 days (crystalline form by XRD) ([1]; listed as ODM-201 amorphous form): began to show a weak crystalline state
- reduction of chemical purity after storage [2]: more than 1%
- Purity (%) ([2]; 1 day): 99.7%
- Purity (%) ([2]; 7 days): 98.2%
- moisture sorption (weight change) [3]: 6.4%

SMILES: CC(O)c1cc(C(=O)N[C@@H](C)Cn2ccc(-c3ccc(C#N)c(Cl)c3)n2)[nH]n1 (stereo partly drawn) [ODM-201 Form 3, N—((S)-1-(3-(3-chloro-4-cyanophenyl)-1H-pyrazol-1-yl)prop-2-yl)-5-(1-hydroxyethyl)-1H-pyrazole-3-carboxamide]
- Solubility ([4]; 25 ± 2° C.): 12.5 µg/mL (≈ 31.3 µM)
- Solubility ([4]; 37 ± 2° C.): 24.3 µg/mL (≈ 60.9 µM)

SMILES: CC(O)c1cc(C(=O)N[C@@H](C)Cn2ccc(-c3ccc(C#N)c(Cl)c3)n2)n[nH]1 (stereo partly drawn) [ODM-201 Form 4, N—((S)-1-(3-(3-chloro-4-cyanophenyl)-1H-pyrazol-1-yl)prop-2-yl)-5-(1-hydroxyethyl)-1H-pyrazole-3-carboxamide]
- The test results after 7 days (crystalline form by XRD) [1]: kept their original crystalline forms; also recorded: keeps its form unchanged; also recorded: Form 4
- reduction of chemical purity after storage [2]: still kept their original respective purity level; also recorded: essentially unchanged
- Purity (%) ([2]; 1 day): 99.2%
- Purity (%) ([2]; 7 days): 99.1%
- moisture sorption (weight change) [3]: less than 0.2%
- Solubility ([4]; 25 ± 2° C.): 59.5 µg/mL (≈ 149 µM)
- Solubility ([4]; 37 ± 2° C.): 88.6 µg/mL (≈ 222 µM)

SMILES: CC(O)c1cc(C(=O)N[C@@H](C)Cn2ccc(-c3ccc(C#N)c(Cl)c3)n2)n[nH]1 (stereo partly drawn) [ODM-201 Form 2, N—((S)-1-(3-(3-chloro-4-cyanophenyl)-1H-pyrazol-1-yl)prop-2-yl)-5-(1-hydroxyethyl)-1H-pyrazole-3-carboxamide]
- The test results after 7 days (crystalline form by XRD) [1]: kept their original crystalline forms; also recorded: keeps its form unchanged; also recorded: Form 2
- reduction of chemical purity after storage [2]: still kept their original respective purity level; also recorded: essentially unchanged
- Purity (%) ([2]; 1 day): 99.6%
- Purity (%) ([2]; 7 days): 99.6%
- moisture sorption (weight change) [3]: 2.5%
- Solubility ([4]; 25 ± 2° C.): 27.6 µg/mL (≈ 69.2 µM)
- Solubility ([4]; 37 ± 2° C.): 54.8 µg/mL (≈ 137 µM)

SMILES: CC(O)c1cc(C(=O)N[C@@H](C)Cn2ccc(-c3ccc(C#N)c(Cl)c3)n2)n[nH]1 (stereo partly drawn) [ODM-201 Form 1, N—((S)-1-(3-(3-chloro-4-cyanophenyl)-1H-pyrazol-1-yl)prop-2-yl)-5-(1-hydroxyethyl)-1H-pyrazole-3-carboxamide]
- The test results after 7 days (crystalline form by XRD) [1]: keeps its form unchanged; also recorded: kept their original crystalline forms; also recorded: Form 1
- reduction of chemical purity after storage [2]: essentially unchanged; also recorded: still kept their original respective purity level
- Purity (%) ([2]; 1 day): 99.7%
- Purity (%) ([2]; 7 days): 99.6%
- moisture sorption (weight change) [3]: less than 0.3%
- Solubility ([4]; 37 ± 2° C.): 17.4 µg/mL (≈ 43.6 µM)
